Experimental data published in patent US3941800A, “N-benzyltriazole compounds” (Bayer Aktiengesellschaft, priority 1969, dated 1976).

What was measured:
Format in all cases: in vivo
[1] = system: tomato plants; assay: Growth inhibition/tomato plants; settings: Solanum lycopersicum, 192 h; 500 ppm spray on plants 10 cm high; after 8 days vs untreated control
Protocol: (§1) Solvent: 40 parts by weight acetone
(§2) Emulsifier: 0.25 parts by weight alkylaryl polyglycol ether
(§3) To produce a suitable preparation of active compounds, 1 part by weight of active compound was mixed with the stated amount of solvent which contained the stated amount of emulsifier, and the concentrate was diluted with a disodium hydrogen phosphate-potassium dihydrogen phosphate buffer solution (pH 6) to the desired concentration.
Tomato plants of a height of 10 cm were sprayed with a preparation which contained 500 ppm of active compound.
After 8 days, the percentage inhibition of the treated plants compared with the untreated control plant was determined. With 100% inhibition, no growth was present; with 0% inhibition, the growth corresponded to that of the control plant.
The active compounds, concentration of active compound in ppm (=mg/kg) and the results can be seen from the following Table.

[2] = system: oat grains; assay: Growth inhibition/oat grains; settings: 72 h, shoot length after 3 days vs control, dark, 25°C, pH 6
Protocol: as §1, §2
as §3, with “compound,” for “compounds,”
Batches of 25 oat grains were laid out on two filter papers in a Petri dish. 10 ml. of the preparation of active compound were pipetted into each dish. Germination of the seeds took place in the dark at 25°C.
After 3 days, the length of the shoot was determined and the growth inhibition compared with the control plant was expressed as a percentage. 100% denoted the standstill of growth, and 0% denoted a growth corresponding to that of the untreated plant.
The active compounds, concentrations of the active compounds in ppm (=mg/kg) and the results can be seen from the following Table.

[3] = system: beans (Phaseolus vulgaris); assay: Growth inhibition/bean plants; settings: 500 ppm spray on beans 10 cm high; length after 8 days; water control 26 cm
Protocol: as §1, §2
as §3, with “compound,” for “compounds,”, “concentrations.” for “concentration.”
Beans (Phaseolus vulgaris) 10 cm high were sprayed with preparations which contained 500 ppm of active compound.
After 8 days, the length of the treated plants compared with the untreated control plant was determined.
The active compounds, concentrations of active compound in ppm (=mg/kg) and the results can be seen from the following Table.

[4] = system: linseed; assay: Growth inhibition/linseed test; settings: 72 h, root length after 3 days vs control, dark, 25°C, pH 6
Protocol: as §1, §2
as §3, with “compound,” for “compounds,”
Batches of 25 linseeds were laid out on two filter papers in a Petri dish. 10 ml. of the preparation of active compound were pipetted into each dish. Germination of the seeds took place in the dark at 25°C.
After 3 days, the length of the roots was determined and the growth inhibition compared with the control plant was expressed as a percentage. 100% denoted the standstill of growth, and 0% denoted a growth corresponding to that of the untreated plant.
The active compounds, the concentrations of the active compounds in ppm (=mg/kg) and results can be seen from the following Table.

[5] = system: apple seedlings; assay: Growth inhibition/apple seedlings; settings: 168 h; 500 ppm spray on seedlings about 2 cm high; after 7 days vs untreated control
Protocol: as §1, §2
as §3, with “compound,” for “compounds,”
Apple seedlings were, at a height of about 2 cm, sprayed with a preparation which contained 500 ppm of active compound.
After 7 days, the percentage inhibition of the treated plants compared with the untreated control plant was determined. With 100% inhibition, no growth was present; with 0% inhibition, the growth corresponded to that of the control plant.
The active compounds, the concentrations of the active compounds in ppm (=mg/kg) and the results can be seen from the following Table.

Question: With `Cc1cc(C(c2ccccc2)(c2ccc(Cl)cc2)n2cncn2)no1` (stereo not shown) [Compound 2, (4-chloro-phenyl)-phenyl-(5-methyl-isoxazol-3-yl)-(1,2,4-triazol-1-yl)-methane] as the compound, how does the inhibition at 500 ppm [1] read?
Answer: 88%

Question: And the inhibition at 50 ppm [2]?
Answer: 55%

Question: What about the inhibition at 250 ppm [2] of the same compound?
Answer: 95%

Question: What about the “Length in cm with a concentration of active compound of 500 ppm” value (“Length in cm with a concentration” for short) [3] of the same compound?
Answer: 10.0 cm

Question: What about the inhibition at 50 ppm [4] of the same compound?
Answer: 55%

Question: What about the inhibition at 250 ppm [4] of the same compound?
Answer: 85%

Question: What does the source list for `O=c1ccc(=O)[nH][nH]1` [maleic acid hydrazide, reference compound]?
Answer: inhibition at 500 ppm [1]: 33%; inhibition at 50 ppm [2]: 20%; inhibition at 250 ppm [2]: 40%; Length in cm with a concentration of active compound of 500 ppm [3]: 12 cm; inhibition at 50 ppm [4]: 36%; inhibition at 250 ppm [4]: 50%

Question: Which results are given for `Cc1cc(C(c2ccccc2)(c2ccccc2)n2cncn2)no1` [Compound 4, bis-phenyl-(5-methyl-isoxazol-3-yl)-(1,2,4-triazol-1-yl)-methane]?
Answer: inhibition at 500 ppm [5]: 43%; inhibition at 500 ppm [1]: 80%; inhibition at 50 ppm [2]: 65%; inhibition at 250 ppm [2]: 75%

Question: For `Cc1cc(C(c2ccccc2)(c2ccc(F)cc2)n2cncn2)no1` (stereo not shown) [Compound 1, (4-fluoro-phenyl)-phenyl-(5-methyl-isoxazol-3-yl)-(1,2,4-triazol-1-yl)-methane], which inhibition at 500 ppm [5] is on record?
Answer: 50%

Question: What about the inhibition at 500 ppm [1] of the same compound?
Answer: 81%

Question: What about the inhibition at 50 ppm [2] of the same compound?
Answer: 97%

Question: What about the inhibition at 250 ppm [2] of the same compound?
Answer: 100%

Question: And the “Length in cm with a concentration” value [3]?
Answer: 10.5 cm

Question: What about the inhibition at 50 ppm [4] of the same compound?
Answer: 85%

Question: What about the inhibition at 250 ppm [4] of the same compound?
Answer: 100%

Question: `Cc1cccc(C(c2ccccc2)(c2nccn2C)n2cncn2)c1` (stereo not shown) [Compound 3, (3-methyl-phenyl)-phenyl-(1-methyl-imidazol-2-yl)-(1,2,4-triazol-1-yl)-methane] was tested. Which inhibition at 500 ppm [1] did it give?
Answer: 60%

Question: And the inhibition at 50 ppm [4]?
Answer: 85%

Question: What about the inhibition at 250 ppm [4] of the same compound?
Answer: 100%

Question: For `Cn1ccnc1C(c1ccccc1)(c1ccc(-c2ccccc2)cc1)n1cncn1` (stereo not shown) [Compound 8, (4-phenyl-phenyl)-phenyl(1-methyl-imidazol-2-yl)-(1,2,4-triazol-1-yl)-methane], which “Length in cm with a concentration” value [3] is on record?
Answer: 11.5 cm

Question: Which results are given for `CN(C)NC(=O)CCC(=O)O` [succinic acid 2,2-dimethylhydrazide, reference compound]?
Answer: inhibition at 500 ppm [5]: 23%; inhibition at 500 ppm [1]: 20%; inhibition at 50 ppm [2]: 22%; inhibition at 250 ppm [2]: 37%; inhibition at 50 ppm [4]: 12%; inhibition at 250 ppm [4]: 15%

Question: How did the inhibition at 50 ppm [2] turn out when `Cn1ccnc1C(c1ccccc1)(c1ccc(Cl)cc1)n1cncn1` (stereo not shown) [Compound 6, (4-chloro-phenyl)-phenyl-(1-methyl-imidazol-2-yl)-(1,2,4-triazol-1-yl)-methane] was run?
Answer: 25%

Question: What about the inhibition at 250 ppm [2] of the same compound?
Answer: 70%

Question: With `C[N+](C)(C)CCCl` [(2-chloroethyl)-trimethyl-ammonium chloride, reference compound] as the compound, how does the inhibition at 500 ppm [5] read?
Answer: 25%

Question: What about the inhibition at 500 ppm [1] of the same compound?
Answer: 25%

Question: And the inhibition at 50 ppm [2]?
Answer: 22%

Question: What about the inhibition at 250 ppm [2] of the same compound?
Answer: 31%

Question: And the inhibition at 50 ppm [4]?
Answer: 20%

Question: What about the inhibition at 250 ppm [4] of the same compound?
Answer: 30%

Question: With `Cn1ccnc1C(c1ccccc1)(c1ccc(C(C)(C)C)cc1)n1cncn1` (stereo not shown) [Compound 7, (4-tert.-butyl-phenyl)-phenyl(1-methyl-imidazol-2-yl)-(1,2,4-triazol-1-yl)-methane] as the compound, how does the inhibition at 50 ppm [2] read?
Answer: 25%

Question: What about the inhibition at 250 ppm [2] of the same compound?
Answer: 62%
